# Test results: patent publication US20240336608A1, “IL4I1 INHIBITORS AND METHODS OF USE” (Merck Sharp & Dohme LLC, priority 2023, published 2024)
# Biological target: T1, recombinant IL4I1 (Homo sapiens, UniProt Q96RQ9)
# T1 construct: purchased R&D Systems 5684-AO-020
# T1 sequence (Q96RQ9 22-567): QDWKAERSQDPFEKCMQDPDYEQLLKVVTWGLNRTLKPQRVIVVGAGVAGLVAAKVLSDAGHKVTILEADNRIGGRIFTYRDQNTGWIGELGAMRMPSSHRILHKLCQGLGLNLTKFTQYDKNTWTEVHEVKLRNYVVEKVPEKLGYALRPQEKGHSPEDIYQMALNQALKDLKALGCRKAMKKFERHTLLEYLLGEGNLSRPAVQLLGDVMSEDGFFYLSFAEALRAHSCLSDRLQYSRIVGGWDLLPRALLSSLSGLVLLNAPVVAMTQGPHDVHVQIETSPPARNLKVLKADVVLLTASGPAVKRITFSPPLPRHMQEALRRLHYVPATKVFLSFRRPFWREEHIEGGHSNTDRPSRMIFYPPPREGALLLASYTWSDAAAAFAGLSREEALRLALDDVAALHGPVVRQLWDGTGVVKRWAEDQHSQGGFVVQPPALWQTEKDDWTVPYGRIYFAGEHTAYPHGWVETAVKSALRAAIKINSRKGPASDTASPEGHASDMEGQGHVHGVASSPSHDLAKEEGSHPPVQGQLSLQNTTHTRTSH
# Assay: IL4I1 Enzymatic Assay (Amplex Red/HRP coupled detection of H2O2, fluorescence)
# Assay type: biochemical
# Conditions: 1 nM recombinant IL4I1; four-hour pre-incubation with compound; 1 mM each Phe, Tyr, Trp; ten-point titration
# Method: Interleukin 4 inducible protein 1 (IL4I1) is an L-amino oxidase that catalyzes the oxidation of aromatic residues (Phe, Trp and Tyr): L-amino acid+H2O+O2→2-oxo acid+NH3+H2O2. Equal molar of H2O2 and the corresponding alpha-ketoacid are produced when IL4I1 and substrate are added. In this assay, the hydrogen peroxide generated by IL4I1 is then detected through a coupled reaction with Amplex Red (10-acetyl-3,7-dihydroxyphenoxazine) and […] (HRP) to produce Resorufin product that could be detected in the form of fluorescence signals. The assessment of the inhibitory effect of small molecules (EC50) on IL4I1 is measured by the effectiveness of the compounds to inhibit the production of H202.
# Using this assay, the potency (EC50) of each compound was determined from a ten-point (1:3 serial dilution) titration curve using the following outlined procedure. To each well of a black flat-bottom Greiner (Cat #781076) 384 well-plate, 125 nL of compound (0.5% DMSO in final assay volume of 25 μL) was dispensed, followed by the addition of 12.5 μL of 1× assay buffer (50 mM Hepes 7.0 and 0.005% Tween20 (Sigma, Cat #P8341; low peroxide grade)) containing 2 nM of recombinant IL4I1 (R&D Systems, Cat #5684-AO-020). Plates were placed in an ambient temperature humidified chamber for a four-hour pre-incubation with compound. Subsequently, each reaction was initiated by the addition of 12.5 μL 1× assay buffer containing 2 mM of each aromatic amino acids (Phe/Tyr/Trp), 0.1 mM Amplex Red and 2 U/mL of HRP. The final reaction in each well of 25 μL consists of 1 nM of IL4I1, 1 mM of each residue (Phe, Tyr and Trp), 0.05 mM Amplex Red and 1 U/mL of HRP. It should be noted that the concentrations of Amplex Red and HRP used here are in excess such that the conversion of H2O2 to Resorufin product occurs instantaneously and non-rate limiting. Reactions were allowed to proceed for 120 minutes followed by fluorescence readout on a Spectramax with the following set parameters: 544 nm excitation/590 nm emission, 570 nm cutoff (EnVision is an alternative reader). Dose-response curves were generated by plotting percent effect (% inhibition; Y-axis) vs. Log10 compound concentrations (X-axis). EC50 values were calculated using a non-linear regression, four-parameters sigmoidal dose-response model and are shown in Table 16.
row,EC50,SMILES
1,0.843 µM,"CC(C)(Cn1cc(C(=O)NCc2nnc(-c3ccccc3)s2)nn1)C(N)=O [Example 126, 1-(3-amino-2,2-dimethyl-3-oxo-propyl)-N-[(5-phenyl-1,3,4-thiadiazol-2-yl)methyl]triazole-4-carboxamide]"
2,0.306 µM,"CC(C)(O)c1cc(C(=O)NCc2nnc(-c3ccccc3)s2)on1 [Example 328, 3-(2-hydroxypropan-2-yl)-N-((5-phenyl-1,3,4-thiadiazol-2-yl)methyl)isoxazole-5-carboxamide]"
3,0.263 µM,"Cc1ccc(-n2cc(C(=O)NCc3ccc(C4CCCCC4)nn3)nn2)c(C)n1 [Example 326, N-((6-cyclohexylpyridazin-3-yl)methyl)-1-(2,6-dimethylpyridin-3-yl)-1H-1,2,3-triazole-4-carboxamide]"
4,0.383 µM,"O=C(NCc1nnc(-c2ccccc2)s1)c1cn(C2C[C@@H]2C(F)F)nn1 (single isomer, unassigned) [Example 144, Trans-1-(-2-(difluoromethyl)cyclopropyl]-N-[(5-phenyl-1,3,4-thiadiazol-2-yl)methyl]-1H-1,2,3-triazole-4-carboxamide]"
5,0.014 µM,"CC(F)(F)Cn1cc(C(=O)NCc2nnc(-c3ccccc3)s2)nn1 [Example 211, 1-(2,2-difluoropropyl)-N-((5-phenyl-1,3,4-thiadiazol-2-yl)methyl)-1H-1,2,3-triazole-4-carboxamide]"
6,0.019 µM,"O=C(NCc1nnc(-c2ccccc2)s1)c1cn(Cc2ccccn2)nn1 [Example 101, N-((5-phenyl-1,3,4-thiadiazol-2-yl)methyl)-1-(pyridin-2-ylmethyl)-1H-1,2,3-triazole-4-carboxamide]"
7,0.237 µM,"O=C(NCc1nnc(-c2ccccc2)s1)c1cc2n(n1)CCC2 [Example 48, N-[(5-phenyl-1,3,4-thiadiazol-2-yl)methyl]-5,6-dihydro-4H-pyrrolo[1,2-b]pyrazole-2-carboxamide]"
8,0.011 µM,"O=C(NCc1nnc(-c2ccccc2)s1)c1cn(Cc2ccccc2)nn1 [Example 241, 1-benzyl-N-((5-phenyl-1,3,4-thiadiazol-2-yl)methyl)-1H-1,2,3-triazole-4-carboxamide]"
9,0.067 µM,"Cc1ccc(-n2cc(C(=O)NCc3ccc(-n4nccn4)nn3)nn2)c(C)n1 (single isomer, unassigned) [Example 344, N-((6-(2H-1,2,3-triazol-2-yl)pyridazin-3-yl)methyl)-1-(2,6-dimethylpyridin-3-yl)-1H-1,2,3-triazole-4-carboxamide]"
10,0.482 µM,"Cc1ccc(-n2cc(C(=O)NCc3ccc(-c4ccccc4Cl)nn3)nn2)c(C)n1 [Example 119, N-((6-(2-chlorophenyl)pyridazin-3-yl)methyl)-1-(2,6-dimethylpyridin-3-yl)-1H-1,2,3-triazole-4-carboxamide]"
11,0.074 µM,"Cc1ccc(-n2cc(C(=O)NCc3ccc(-c4ccccc4F)nn3)nn2)c(C)n1 [Example 116, 1-(2,6-dimethylpyridin-3-yl)-N-((6-(2-fluorophenyl)pyridazin-3-yl)methyl)-1H-1,2,3-triazole-4-carboxamide]"
12,0.007 µM,"O=C(NCc1nnc(-c2ccccc2)s1)c1cn(CCCO)nn1 [Example 194, 1-(3-hydroxypropyl)-N-((5-phenyl-1,3,4-thiadiazol-2-yl)methyl)-1H-1,2,3-triazole-4-carboxamide]"
13,0.04 µM,"CCn1ccc(C(=O)NCc2nnc(-c3ccccc3)s2)c1 [Example 18, 1-ethyl-N-[(5-phenyl-1,3,4-thiadiazol-2-yl)methyl]pyrrole-3-carboxamide]"
14,0.274 µM,"Cc1ccc(-n2cc(C(=O)NCc3nnc(C4CCCCC4)s3)nn2)c(C)n1 [Example 324, N-((5-cyclohexyl-1,3,4-thiadiazol-2-yl)methyl)-1-(2,6-dimethylpyridin-3-yl)-1H-1,2,3-triazole-4-carboxamide]"
15,0.104 µM,"O=C(NCc1cc(-c2ccncc2)on1)c1cn(C2CC2)nn1 [Example 246, 1-cyclopropyl-N-((5-(pyridin-4-yl)isoxazol-3-yl)methyl)-1H-1,2,3-triazole-4-carboxamide]"
16,0.34 µM,"Cc1c(C(=O)NCc2nnc(-c3ccccc3)s2)oc2cccc(O)c12 [Example 20, 4-hydroxy-3-methyl-N-[(5-phenyl-1,3,4-thiadiazol-2-yl)methyl]benzofuran-2-carboxamide]"
17,0.025 µM,"O=C(NCc1nnc(-c2ccccc2)s1)c1cn(CC(O)C(F)F)nn1 (single isomer, unassigned) [Example 138, 1-(3,3-difluoro-2-hydroxypropyl)-N-((5-phenyl-1,3,4-thiadiazol-2-yl)methyl)-1H-1,2,3-triazole-4-carboxamide]"
18,0.02 µM,"Cc1cnc(-n2cc(C(=O)NCc3nnc(-c4ccccc4)s3)nn2)c(C)n1 [Example 270, 1-(3,5-dimethylpyrazin-2-yl)-N-((5-phenyl-1,3,4-thiadiazol-2-yl)methyl)-1H-1,2,3-triazole-4-carboxamide]"
19,0.209 µM,"CC(C)Cc1cc(C(=O)NCc2nnc(-c3ccccc3)s2)[nH]n1 [Example 21, 3-isobutyl-N-((5-phenyl-1,3,4-thiadiazol-2-yl)methyl)-1H-pyrazole-5-carboxamide]"
20,0.325 µM,"O=C(NCc1nnc(-c2ccccc2)s1)c1cn([C@@H]2COC[C@H]2CO)nn1 (stereo in doubt) [Example 147, 1-[(3S,4R)-4-(hydroxymethyl)oxolan-3-yl]-N-[(5-phenyl-1,3,4-thiadiazol-2-yl)methyl]-1H-1,2,3-triazole-4-carboxamide]"
21,0.492 µM,"CC(NC(=O)c1cn(C)nn1)c1nnc(-c2ccccc2)s1 (single isomer, unassigned) [Example 258, 1-methyl-N-(1-(5-phenyl-1,3,4-thiadiazol-2-yl)ethyl)-1H-1,2,3-triazole-4-carboxamide]"
22,0.995 µM,"CC(C)(O)c1cc(C(=O)NCc2ccc(-c3ccccc3)nn2)on1 [Example 254, 3-(2-hydroxypropan-2-yl)-N-((6-phenylpyridazin-3-yl)methyl)isoxazole-5-carboxamide]"
23,0.474 µM,"Cc1ccc(C(=O)NCc2nnc(-c3ccccc3)s2)[nH]1 [Example 17, 5-methyl-N-[(5-phenyl-1,3,4-thiadiazol-2-yl)methyl]-1H-pyrrole-2-carboxamide]"
24,0.974 µM,"Cc1cc(C)c(C(=O)NCc2nnc(-c3ccccc3)s2)o1 [Example 57, 3,5-dimethyl-N-[(5-phenyl-1,3,4-thiadiazol-2-yl)methyl]furan-2-carboxamide]"
25,0.069 µM,"O=C(NCc1nnc(-c2ccccc2)s1)c1cc(CO)n[nH]1 [Example 4, 3-(hydroxymethyl)-N-((5-phenyl-1,3,4-thiadiazol-2-yl)methyl)-1H-pyrazole-5-carboxamide]"
26,0.72 µM,"O=C(NCc1nnc(-c2ccccc2)s1)c1cn(-c2ccncn2)nn1 [Example 309, N-((5-phenyl-1,3,4-thiadiazol-2-yl)methyl)-1-(pyrimidin-4-yl)-1H-1,2,3-triazole-4-carboxamide]"
27,0.003 µM,O=C(NCc1nnc(-c2ccccc2)s1)c1cn(CC(F)F)nn1 [Example 213]
28,0.388 µM,"Cc1ccc(-n2cc(C(=O)NCc3cc(-c4ccccn4)no3)nn2)c(C)n1 [Example 235, 1-(2,6-dimethylpyridin-3-yl)-N-((3-(pyridin-2-yl)isoxazol-5-yl)methyl)-1H-1,2,3-triazole-4-carboxamide]"
29,0.234 µM,"O=C(NCc1nnc(-c2ccccc2)s1)c1cc2c(o1)CCNC2=O [Example 56, 4-oxo-N-[(5-phenyl-1,3,4-thiadiazol-2-yl)methyl]-6,7-dihydro-5H-furo[3,2-c]pyridine-2-carboxamide]"
